{
  "source": "paper PMC6220787",
  "about": "(Clinical Pharmacology in Drug Development, 2018)",
  "key": {"[1]": {"experiment": "Pharmacokinetics of chlorogenic acids", "assay_type": "in vivo, human", "conditions": "for AUC0–4 h / tmax: analyte in blood after product 1, oral, healthy male subjects; for AUC0–4 h: mean (SD); for tmax: median (min, max)"}, "[2]": {"conditions": "analytical recovery test in plasma; cited from earlier work"}, "[3]": {"assay_type": "in vivo, human"}, "[4]": {"conditions": "60 mg of caffeine, single oral dose, healthy male subjects"}, "[5]": {"conditions": "cited from earlier work"}, "[6]": {"conditions": "healthy subjects, 412 μmol of CGA in 200 mL of coffee; cited from earlier work"}, "[7]": {"conditions": "after product 1, relative to 4‐CQA"}, "[8]": {"conditions": "after product 1, relative to 5‐CQA"}},
  "note": "Where two headings read alike, the source gives them in different places.",
  "data": [
    {"smiles": "O=C(/C=C/c1ccc(O)c(O)c1)O[C@@H]1C[C@](O)(C(=O)O)C[C@@H](O)[C@H]1O", "note": "[3‐CQA, 3‐O‐caffeoylquinic acid]", "values": [
      {"measurement": "AUC0–4 h greater than that of 4‐CQA", "setting": "[1]; [7]", "value": "~41", "unit": "%"},
      {"measurement": "concentration (Cmax) greater than that of 4‐CQA", "setting": "[1]; [7]", "value": 60, "unit": "%"},
      {"measurement": "AUC0–4 h greater than that of 5‐CQA", "setting": "[1]; [8]", "value": 42.5, "unit": "%"},
      {"measurement": "concentration (Cmax) greater than that of 5‐CQA", "setting": "[1]; [8]", "value": 58, "unit": "%"}
    ]},
    {"smiles": "O=C(/C=C/c1ccc(O)c(O)c1)O[C@H]1[C@H](O)C[C@](O)(C(=O)O)C[C@H]1O", "note": "[4‐CQA, 4‐O‐caffeoylquinic acid]", "values": [
      {"measurement": "AUC0–4 h", "setting": "[1]", "value": "16.1 (9.80) ng·h/mL"},
      {"measurement": "tmax", "setting": "[1]", "value": "1.00 (0.75, 4.00) h"}
    ]},
    {"smiles": "O=C(/C=C/c1ccc(O)c(O)c1)O[C@@H]1C[C@](O)(C(=O)O)C[C@@H](O)[C@H]1O", "note": "[5‐CQA, 5‐O‐caffeoylquinic acid]", "values": [
      {"measurement": "hydrolyzed into caffeic acid", "setting": "[2]", "value": "~7", "unit": "%"},
      {"measurement": "AUC0–4 h", "setting": "[1]", "value": "15.7 (10.4) ng·h/mL"},
      {"measurement": "tmax", "setting": "[1]", "value": "1.50 (0.75, 2.50) h"}
    ]},
    {"smiles": "Cn1c(=O)c2c(ncn2C)n(C)c1=O", "note": "[Product 2, caffeine]", "values": [
      {"measurement": "GMR (90%CI) of AUC0–4 h of caffeine", "setting": "[3]; geometric least‐squares mean ratio, product 1 to product 2", "value": 98.33, "unit": "%"},
      {"measurement": "AUC(0-t)", "setting": "[3]; male, human, serum, oral, 60 mg", "value": 5.6, "unit": "µg·h/mL"},
      {"measurement": "Cmax", "setting": "[3]; male, human, serum, po, 60 mg", "value": 2.09, "unit": "µg/mL"},
      {"measurement": "tmax", "setting": "[3]; male, human, serum, po, 60 mg", "value": 0.63, "unit": "h"},
      {"measurement": "adverse events", "setting": "[4]", "value": "no adverse events"}
    ]},
    {"smiles": "Cn1c(=O)c2c(ncn2C)n(C)c1=O", "note": "[caffeine]", "values": [
      {"measurement": "caffeine half‐life", "setting": "[5]; adult men, dose of 4 mg/kg", "value": "2.5 to 4.5", "unit": "h"},
      {"measurement": "mean half‐life of caffeine in plasma", "setting": "[5]; healthy individuals", "value": "about 5 hours"},
      {"measurement": "known half‐life of caffeine", "setting": "[5]; stated as known", "value": "~5", "unit": "h"},
      {"measurement": "known tmax of caffeine", "setting": "[5]; stated as known", "value": "approximately 60 minutes"}
    ]},
    {"smiles": "COc1cc(CCC(=O)O)ccc1O", "note": "[dihydroferulic acid]", "values": [
      {"measurement": "tmax in plasma", "setting": "[6]", "value": 5.2, "unit": "h"}
    ]}
  ]
}
